{"source": "the supplement of paper PMC10307832", "assay_in_all_cases": "relative viability (nuclei count vs DMSO), 5 days (fraction); higher = more cells survive", "key": {"[1]": {"compound": "Cn1cc(-c2cnc3ccc4ccc(CS(=O)(=O)NCc5ccccn5)cc4c(=O)c3c2)cn1 [MK-8033] + O=C(c1cc(Cc2n[nH]c(=O)c3ccccc23)ccc1F)N1CCN(C(=O)C2CC2)CC1 [Olaparib] (partner 8 µM)", "how_it_was_run": "(§1)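 Lung cancer cell lines in 1536-well plates got either a single drug or a fixed anchor-drug dose together with five library-drug doses (not always all listed) in √10 steps, by pin tool, on the day after seeding. Nuclei were counted after 5 days, and relative viability is the treated-to-vehicle ratio of nuclei counts. Values are medians of duplicate plates.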"}, "[2]": {"compound": "CC[C@@H](C)CNCC(=O)N1CCC2=C([C@@H]1COC3=CC=CC(=C3)C)C=CS2 [RU-SKI 43] + COc1cccc2cc(-c3nc([C@H]4CC[C@H](C(=O)O)CC4)n4ncnc(N)c34)[nH]c12 [OSI-027] (partner 0.5 µM)", "how_it_was_run": "as §1"}, "[3]": {"compound": "Cn1cc(-c2cnc3ccc4ccc(CS(=O)(=O)NCc5ccccn5)cc4c(=O)c3c2)cn1 [MK-8033] + N=C(N)NC(=N)NCCc1ccccc1 [Phenformin] (partner 250 µM)", "how_it_was_run": "as §1"}, "[4]": {"compound": "Cn1cc(-c2cnc3ccc4ccc(CS(=O)(=O)NCc5ccccn5)cc4c(=O)c3c2)cn1 [MK-8033] + CC1(C)CCC(c2ccc(Cl)cc2)=C(CN2CCN(c3ccc(C(=O)NS(=O)(=O)c4ccc(N[C@H](CCN5CCOCC5)CSc5ccccc5)c(S(=O)(=O)C(F)(F)F)c4)cc3)CC2)C1 [Navitoclax] (partner 0.5 µM)", "how_it_was_run": "as §1"}}}
{"cell line": "UMC-11", "values": [{"measurement": "relative viability", "setting": "[1]; first compound 0.02 µM", "value": 0.449}, {"measurement": "relative viability", "setting": "[1]; first compound 0.06325 µM", "value": 0.375}, {"measurement": "relative viability", "setting": "[1]; first compound 0.2 µM", "value": 0.353}, {"measurement": "relative viability", "setting": "[1]; first compound 0.6325 µM", "value": 0.405}, {"measurement": "relative viability", "setting": "[1]; first compound 2 µM", "value": 0.37}, {"measurement": "relative viability", "setting": "[2]; first compound 0.1 µM", "value": 0.534}, {"measurement": "relative viability", "setting": "[2]; first compound 0.3162 µM", "value": 0.631}, {"measurement": "relative viability", "setting": "[2]; first compound 1 µM", "value": 0.492}, {"measurement": "relative viability", "setting": "[2]; first compound 3.162 µM", "value": 0.5}, {"measurement": "relative viability", "setting": "[2]; first compound 10 µM", "value": 0.463}, {"measurement": "relative viability", "setting": "[3]; first compound 0.02 µM", "value": 0.323}, {"measurement": "relative viability", "setting": "[3]; first compound 0.06325 µM", "value": 0.258}, {"measurement": "relative viability", "setting": "[3]; first compound 0.2 µM", "value": 0.312}, {"measurement": "relative viability", "setting": "[3]; first compound 2 µM", "value": 0.266}, {"measurement": "relative viability", "setting": "[4]; first compound 0.02 µM", "value": 0.306}, {"measurement": "relative viability", "setting": "[4]; first compound 0.06325 µM", "value": 0.265}, {"measurement": "relative viability", "setting": "[4]; first compound 0.2 µM", "value": 0.287}, {"measurement": "relative viability", "setting": "[4]; first compound 0.6325 µM", "value": 0.28}, {"measurement": "relative viability", "setting": "[4]; first compound 2 µM", "value": 0.332}]}
